This data set in a line: in vitro. Particulars: human, hela cells, % viability.

As to `O=C(NC[C@H]1C[C@@H]2CC[N@]1C[C@@H]2CN1CCN(c2ncccn2)CC1)c1ccco1` [CBK289115], the viability – broadly, a read-out of living cells in per cent, often relative to untreated cells – at 28.5 h, 10 µM stood at 88.1%.
The same measure for `COc1cc(NC(=O)CSc2nncn2C)c(OC)cc1Cl` [CBK270307]: 86.4%; for `O=C(c1cnn(-c2cccc(Cl)c2)c1)N1CCOCC1CC(F)F` (stereo not shown) [CBK304207]: 95.5%.
To `COC(=O)CN1C(CN2CCOCC2)=Nc2ccc(Br)cc2C1c1ccccc1` (stereo not shown) [CBK262981] belongs 89.8%.
`CC(C)NS(=O)(=O)c1ccc(NS(=O)(=O)c2cccc(C(=O)O)c2)cc1` [CBK296950]: the viability at 28.5 h, 10 µM was 84.3%.
The same measure for `COc1ccc(CCNC(=O)Nc2ccccc2[N+](=O)[O-])cc1` [CBK266497]: 96.8%; for `CCCS(=O)(=O)NC1CC(C)(C)Cc2c1cnn2-c1ccc(OC)cc1` (stereo not shown) [CBK306730]: 103%.
The same measure for `O=C(COc1ccc(-c2ccccc2)cc1)N1CCN(S(=O)(=O)c2ccccc2[N+](=O)[O-])CC1` [CBK264154]: 93%; for `Cc1ccc(S(=O)(=O)Nc2nnc(C)s2)cc1` [CBK045486]: 92.5%; for `O=C(c1ccc2c(c1)OCO2)N1CCN(C/C=C/c2ccccc2)CC1` [CBK262639]: 105%.
As to `Cc1cc(-c2ccc([N+](=O)[O-])cc2)nc2ccc3ccccc3c12` [CBK263253C], the viability at 28.5 h, 10 µM is 90.3%.
The same measure for `C[C@@H](Nc1nc(-c2cccc3cccnc23)cnc1N)c1ccccc1` [CBK063784]: 90%.
To `Cc1ccc(OCC(O)Cn2c(=N)n(CCN3CCCCC3)c3ccccc32)cc1` (stereo not shown) [CBK266375C] belongs 98.9%; to `FC(F)(F)c1cccc(Nc2cncc(-c3cccs3)n2)c1` [CBK065750], 125%.
The same measure for `NS(=O)(=O)c1ccc(Nc2c(C(=O)O)cc([N+](=O)[O-])cc2[N+](=O)[O-])cc1` [CBK261319]: 93%.
For `COCCNc1nc(-c2ccccc2CO)cnc1N` [CBK063575], the viability at 28.5 h, 10 µM worked out at 108%.
To `Cc1ccc(S(=O)(=O)N(CCO)CC(O)Cn2c3ccc(Cl)cc3c3cc(Cl)ccc32)cc1` (stereo not shown) [CBK263392] belongs 97.6%.
To `CN1CCc2nc(SCc3cccnc3)c(C#N)cc2C1` [CBK267463] belongs 87.4%; to `CCC(=O)N1CCCc2cc(C(O)CN3CCN(c4ccc(F)cc4)CC3)ccc21` (stereo not shown) [CBK286480], 95.3%; to `Cc1cc(C(=O)N(Cc2ccccc2)c2ccccc2)no1` [CBK268131], 94.2%.
The same measure for `Cc1cccc(-c2noc(C)c2C(=O)NCCn2ccnc2C)c1` [CBK282633]: 107%; for `O=C(NCCCNC1CCc2[nH]c3ccccc3c2C1)c1cccc(Br)c1` (stereo not shown) [CBK107130T]: 86.9%; for `O=C(O)c1cc(/C=C/c2ccc(Br)cc2)nc2ccccc12` [CBK299805]: 94.3%.
On to `CC(=O)NCCn1cc2c(n1)[C@H]1CN(C(=O)CC(C)C)C[C@H]1CC2` [CBK284572], for which the viability at 28.5 h, 10 µM worked out at 99.1%.
In the case of `CN1CCN(C(=O)c2[nH]c3ccccc3c2NS(=O)(=O)c2cccc3cccnc23)CC1` [CBK050041], the viability at 28.5 h, 10 µM was 87.2%.
To `COc1cccc(C2(NC(=O)CCn3nccc3C)CCCC2)c1` [CBK283601] belongs 101%; to `Cn1c(=O)c2c(nc(CN3CCCCC3)n2CCCO)n(C)c1=O` [CBK269280], 106%.
To `COC(=O)NC(=O)N1CCN(c2c(Cl)cncc2Cl)CC1` [CBK043398] belongs 108%; to `CCCOc1ccccc1-c1nnc(SCCC(=O)O)[nH]1` [CBK267182], 93.9%.
To `CCC(NC(=O)c1ccc(C#CC2(O)CCCCC2)cc1)C(=O)O` (stereo not shown) [CBK287160] belongs 96.8%; to `C=CCn1c2cc(C)sc2c2cnn(CC(=O)OCC)c(=O)c21` [CBK284165], 82.9%.
